Source: ChEMBL document CHEMBL1125472, “5-lipoxygenase: properties, pharmacology, and the quinolinyl(bridged)aryl class of inhibitors” (J Med Chem, 1992)

Tests used:
RBL-2H3 = assay: The compound was tested for inhibition LTC4 synthesis in RBL-2H3 Cells; format: functional, Rattus norvegicus
[1] = biological target: T1, Polyunsaturated fatty acid 5-lipoxygenase (Mus musculus, UniProt P48999); assay: The compound was tested for inhibitory activity against 5-lipoxygenase in mouse macrophages
T1 sequence (P48999 whole entry): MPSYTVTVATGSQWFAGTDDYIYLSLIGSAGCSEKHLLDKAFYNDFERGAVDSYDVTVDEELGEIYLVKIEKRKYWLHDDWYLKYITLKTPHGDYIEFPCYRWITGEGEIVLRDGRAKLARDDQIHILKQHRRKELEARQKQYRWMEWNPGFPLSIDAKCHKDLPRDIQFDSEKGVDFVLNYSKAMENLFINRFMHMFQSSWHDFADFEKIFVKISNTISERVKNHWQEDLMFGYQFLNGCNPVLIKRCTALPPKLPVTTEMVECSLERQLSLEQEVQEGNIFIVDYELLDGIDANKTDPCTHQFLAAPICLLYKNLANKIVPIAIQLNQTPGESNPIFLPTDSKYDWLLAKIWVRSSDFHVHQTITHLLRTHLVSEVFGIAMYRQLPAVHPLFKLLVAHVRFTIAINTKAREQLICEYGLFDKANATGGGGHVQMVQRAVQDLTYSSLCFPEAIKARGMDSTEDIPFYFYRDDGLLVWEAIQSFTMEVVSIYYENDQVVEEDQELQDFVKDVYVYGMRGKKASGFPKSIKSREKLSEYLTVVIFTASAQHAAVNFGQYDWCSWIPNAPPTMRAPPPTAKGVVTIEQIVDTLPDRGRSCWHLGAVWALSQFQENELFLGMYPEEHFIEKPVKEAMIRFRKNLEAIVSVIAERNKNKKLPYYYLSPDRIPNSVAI

[2] = biological target: T2, Polyunsaturated fatty acid 5-lipoxygenase (Rattus norvegicus) (UniProt P12527); assay: The compound was tested for inhibition of 5-lipoxygenase in rat RBL-2H3 cells; format: cell-based
T2 sequence (whole entry): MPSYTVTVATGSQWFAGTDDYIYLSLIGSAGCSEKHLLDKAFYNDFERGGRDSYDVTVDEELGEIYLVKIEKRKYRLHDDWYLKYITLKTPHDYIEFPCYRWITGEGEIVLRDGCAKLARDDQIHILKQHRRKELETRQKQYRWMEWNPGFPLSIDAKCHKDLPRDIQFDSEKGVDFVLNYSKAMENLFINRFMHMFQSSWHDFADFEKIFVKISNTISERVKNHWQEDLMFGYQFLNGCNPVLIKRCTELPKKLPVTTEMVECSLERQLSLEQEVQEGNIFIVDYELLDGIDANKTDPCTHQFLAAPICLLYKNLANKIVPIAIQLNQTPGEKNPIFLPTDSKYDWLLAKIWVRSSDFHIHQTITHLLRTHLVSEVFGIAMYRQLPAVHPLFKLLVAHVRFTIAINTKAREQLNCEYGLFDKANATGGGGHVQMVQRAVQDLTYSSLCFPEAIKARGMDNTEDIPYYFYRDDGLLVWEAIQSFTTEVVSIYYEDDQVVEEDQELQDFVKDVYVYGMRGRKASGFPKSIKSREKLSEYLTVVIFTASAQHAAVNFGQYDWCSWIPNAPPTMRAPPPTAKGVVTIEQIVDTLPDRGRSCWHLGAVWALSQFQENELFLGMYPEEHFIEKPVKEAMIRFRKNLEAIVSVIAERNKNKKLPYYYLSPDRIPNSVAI

Mus musculus [3] = organism: Mus musculus; assay: Compound was tested for tetradecanoylphorbol acetate (TPA) induced inflammation at concentration of 1 mg/ear in mouse; format: functional
[4] = biological target: T2, Polyunsaturated fatty acid 5-lipoxygenase (Rattus norvegicus); assay: The compound was tested for inhibition of 5-lipoxygenase translocation in SAR in rat RBL-2H3 cells; format: cell-based
Cavia porcellus = organism: Cavia porcellus; assay: The effective dose which inhibits UVB-induced guinea pig skin erythema; format: functional
Mus musculus [5] = organism: Mus musculus; assay: The effective dose which inhibits […](AA) and tetradecanoylphorbol acetate(TPA) induced inflammation; format: functional
[6] = biological target: T3, Prostaglandin G/H synthase (cyclooxygenase) (Mus musculus, UniProt P22437+Q05769); assay: The compound was tested for inhibitory activity against cyclooxygenase in mouse macrophages; format: protein assay
T3 sequence (P22437 whole entry): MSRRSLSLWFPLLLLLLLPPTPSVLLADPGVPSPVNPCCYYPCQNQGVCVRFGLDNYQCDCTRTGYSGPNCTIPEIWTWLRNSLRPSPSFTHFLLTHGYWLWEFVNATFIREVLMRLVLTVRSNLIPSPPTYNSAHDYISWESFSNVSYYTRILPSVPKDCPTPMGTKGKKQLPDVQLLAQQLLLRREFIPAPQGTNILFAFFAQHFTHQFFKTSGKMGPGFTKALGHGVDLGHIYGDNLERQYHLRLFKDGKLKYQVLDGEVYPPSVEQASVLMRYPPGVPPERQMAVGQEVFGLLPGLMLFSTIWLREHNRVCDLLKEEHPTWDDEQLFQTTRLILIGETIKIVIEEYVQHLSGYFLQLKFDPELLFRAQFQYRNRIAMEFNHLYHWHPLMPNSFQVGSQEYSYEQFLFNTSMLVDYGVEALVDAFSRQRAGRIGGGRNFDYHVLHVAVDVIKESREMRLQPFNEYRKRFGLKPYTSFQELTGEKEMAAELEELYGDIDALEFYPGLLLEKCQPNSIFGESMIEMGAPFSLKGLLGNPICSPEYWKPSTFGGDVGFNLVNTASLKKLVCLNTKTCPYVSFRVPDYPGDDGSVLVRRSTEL
T3 sequence (Q05769 whole entry): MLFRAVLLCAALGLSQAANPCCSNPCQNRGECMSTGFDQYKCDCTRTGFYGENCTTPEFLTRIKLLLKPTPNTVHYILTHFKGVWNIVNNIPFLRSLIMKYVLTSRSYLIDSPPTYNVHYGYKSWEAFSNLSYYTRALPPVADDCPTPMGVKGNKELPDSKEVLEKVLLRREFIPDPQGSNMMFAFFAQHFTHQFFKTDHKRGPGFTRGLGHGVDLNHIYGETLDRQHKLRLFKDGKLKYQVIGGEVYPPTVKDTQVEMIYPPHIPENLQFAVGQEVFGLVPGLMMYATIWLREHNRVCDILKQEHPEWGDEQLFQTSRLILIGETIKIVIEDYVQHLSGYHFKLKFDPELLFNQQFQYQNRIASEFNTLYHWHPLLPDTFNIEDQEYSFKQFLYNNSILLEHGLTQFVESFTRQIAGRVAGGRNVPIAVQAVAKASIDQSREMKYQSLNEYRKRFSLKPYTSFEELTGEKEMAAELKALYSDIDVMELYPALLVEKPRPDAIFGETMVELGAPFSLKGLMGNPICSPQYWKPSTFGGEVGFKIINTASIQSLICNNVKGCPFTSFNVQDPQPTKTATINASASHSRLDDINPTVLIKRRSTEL

IC50 [1]: 200 nM
Inhibition [2]: > 10 µM
Inhibition [4]: 500 nM
IC50 [6]: 44000 nM
SMILES: c1ccc2nc(COc3cccc4ccccc34)ccc2c1
Inhibition (RBL-2H3): 450 nM
Inhibition (Mus musculus [3]): 40%
ED50 (Cavia porcellus): 0.25 mg/spot
ED50 (Mus musculus [5]): 0.3 mg ear-1
